From ChEMBL document CHEMBL3044857, “Benzimidazole: a medicinally important heterocyclic moiety” (Med Chem Res, 2012)
In brackets after ≈: the same amount, converted by molar mass.

Legend:
Aorta [1] = test: Vasorelaxant activity in Rattus norvegicus (rat) aortic rings; assay type: functional, tissue-based
Aorta [2] = test: Vasorelaxant activity in endothelium-denuded Rattus norvegicus (rat) aortic rings; assay type: functional, tissue-based
HT-29 = test: Cytotoxicity against Homo sapiens (human) HT-29 cells by Alamar blue assay; assay type: functional, cell-based
MCF7 = test: Cytotoxicity against Homo sapiens (human) MCF7 cells by Alamar blue assay; assay type: functional, cell-based
PC-3 = test: Cytotoxicity against Homo sapiens (human) PC3 cells by Alamar blue assay; assay type: functional, cell-based
HL-60 = test: Cytotoxicity against Homo sapiens (human) HL60 cells by Alamar blue assay; assay type: functional, cell-based
Candida = test: Antimicrobial activity against Candida; assay type: functional
Trichomonas vaginalis = test: Antimicrobial activity against Trichomonas vaginalis; assay type: functional, organism-based
Giardia intestinalis = test: Antimicrobial activity against Giardia intestinalis; assay type: functional, organism-based; conditions: Giardia duodenalis
Plasmodium falciparum = test: Antimicrobial activity against Plasmodium falciparum; assay type: functional, organism-based
Progesterone receptor = target: T1, Progesterone receptor (Homo sapiens, UniProt P06401); test: Binding affinity to Homo sapiens (human) progesterone receptor
T1 sequence (P06401 whole entry): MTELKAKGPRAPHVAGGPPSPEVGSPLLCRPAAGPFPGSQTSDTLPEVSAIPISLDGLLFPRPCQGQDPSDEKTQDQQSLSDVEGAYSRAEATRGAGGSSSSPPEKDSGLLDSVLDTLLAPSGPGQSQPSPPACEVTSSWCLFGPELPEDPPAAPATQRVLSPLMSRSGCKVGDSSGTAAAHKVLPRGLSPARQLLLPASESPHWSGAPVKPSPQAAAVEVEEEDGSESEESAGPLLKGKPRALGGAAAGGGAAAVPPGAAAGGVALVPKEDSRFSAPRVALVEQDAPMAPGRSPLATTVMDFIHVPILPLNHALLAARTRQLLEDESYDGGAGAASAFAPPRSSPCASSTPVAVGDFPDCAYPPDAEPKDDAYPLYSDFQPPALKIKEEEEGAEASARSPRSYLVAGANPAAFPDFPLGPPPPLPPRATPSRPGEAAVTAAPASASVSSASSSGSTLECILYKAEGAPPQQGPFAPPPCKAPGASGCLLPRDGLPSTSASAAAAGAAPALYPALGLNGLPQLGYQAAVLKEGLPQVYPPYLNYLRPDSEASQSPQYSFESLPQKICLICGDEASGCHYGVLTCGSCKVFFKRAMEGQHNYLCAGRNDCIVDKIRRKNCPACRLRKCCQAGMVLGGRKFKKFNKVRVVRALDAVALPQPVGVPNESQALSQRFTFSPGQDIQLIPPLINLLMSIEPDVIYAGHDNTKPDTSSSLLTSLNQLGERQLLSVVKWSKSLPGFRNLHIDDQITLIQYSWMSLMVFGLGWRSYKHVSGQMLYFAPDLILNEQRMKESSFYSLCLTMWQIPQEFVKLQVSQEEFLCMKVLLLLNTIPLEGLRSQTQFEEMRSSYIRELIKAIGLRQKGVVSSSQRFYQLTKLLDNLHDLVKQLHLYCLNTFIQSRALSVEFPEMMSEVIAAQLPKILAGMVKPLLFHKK

Casein kinase 2 = Casein kinase 2 (Rattus norvegicus, UniProt P19139); test: Inhibition of Rattus norvegicus (rat) liver cytosolic CK2
[3] = Inhibition of GABA-A receptor benzodiazepine site (unknown origin); design: species or system Homo sapiens
[4] = test system: Respiratory syncytial virus; test: Antiviral activity against Respiratory syncytial virus infected cell system assessed as inhibition of viral replication; assay type: functional, organism-based; conditions: human respiratory syncytial virus
[5] = test system: Respiratory syncytial virus; test: Ratio of ribavirin EC50 to compound EC50 for Respiratory syncytial virus infected cell system assessed as inhibition of viral replication; assay type: functional

Casein kinase 2, sequence (P67874 whole entry): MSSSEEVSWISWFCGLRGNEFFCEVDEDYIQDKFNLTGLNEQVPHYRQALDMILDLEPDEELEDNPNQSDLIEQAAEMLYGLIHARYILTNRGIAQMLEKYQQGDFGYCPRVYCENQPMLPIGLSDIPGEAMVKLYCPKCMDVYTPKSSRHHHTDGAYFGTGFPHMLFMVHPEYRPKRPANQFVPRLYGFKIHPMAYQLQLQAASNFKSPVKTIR
Casein kinase 2, sequence (P19139 whole entry): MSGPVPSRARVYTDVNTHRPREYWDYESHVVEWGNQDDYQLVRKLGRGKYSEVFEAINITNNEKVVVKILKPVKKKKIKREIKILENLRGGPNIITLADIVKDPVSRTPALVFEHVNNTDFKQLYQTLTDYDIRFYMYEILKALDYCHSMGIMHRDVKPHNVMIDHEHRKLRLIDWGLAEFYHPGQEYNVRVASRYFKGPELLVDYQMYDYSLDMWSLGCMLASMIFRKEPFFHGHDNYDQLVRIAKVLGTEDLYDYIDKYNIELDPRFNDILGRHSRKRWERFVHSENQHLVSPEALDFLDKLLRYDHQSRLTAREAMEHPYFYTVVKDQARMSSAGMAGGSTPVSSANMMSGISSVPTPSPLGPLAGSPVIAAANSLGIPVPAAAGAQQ

COc1ccc(-c2nc3cc([N+](=O)[O-])ccc3[nH]2)cc1
IC50 (Aorta [1]): 1.41 µM | IC50 (Aorta [2]): 3.61 µM

O=[N+]([O-])c1ccc2nc(-c3ccccc3O)[nH]c2c1
IC50 (Aorta [1]): 0.95 µM | IC50 (Aorta [2]): 2.01 µM

O=C(O)c1cccc2[nH]c(-c3cccc4oc(-c5ccccc5O)nc34)nc12
IC50 (HT-29): 7 µM | IC50 (MCF7): 7 µM | IC50 (PC-3): 7 µM | IC50 (HL-60): 7 µM

CCCCn1c(-c2ccc(F)cc2)nc2cc(C#N)ccc21
MIC (Candida): 3130 ng/mL (≈ 10.7 µM)

Sc1nc2c(Br)cc(Br)cc2[nH]1
IC50 (Trichomonas vaginalis): 1.5 ng/mL (≈ 0.00487 µM) | IC50 (Giardia intestinalis): 6 ng/mL (≈ 0.0195 µM)

N=C(N)c1ccc(-c2ccc(O)c(-c3nc4ccc(C(=N)N)cc4[nH]3)c2)cc1
IC50 (Plasmodium falciparum): 0.0021 µM

Sc1nc2ccc(-n3ccnc3)cc2n1C1CCCC1
Ki (Progesterone receptor): 0.028 µM

FC(F)(F)c1nc2c(Br)c(Br)c(Br)c(Br)c2[nH]1
Ki (Casein kinase 2): 0.6 µM

CCOCN1C2=C(C(=O)Nc3ccccc3F)C(=O)CCN2c2ccc(F)cc21
IC50 [3]: 0.0001 µM

Cc1ccc(O)c(Cn2c(NC3CCN(CCN)CC3)nc3c(C)cccc32)n1 [JNJ 2408068]
EC50 [4]: 0.00016 µM | Ratio EC50 [5]: 100000

NC(=O)c1ncn([C@@H]2O[C@H](CO)[C@@H](O)[C@H]2O)n1 [RIBAVIRIN]
EC50 [4]: 15 µM
